Experimental data taken from patent US7851474B2, “Dipiperazinyl ketones and related analogues” (Neurogen Corporation, priority 2005, dated 2010).

target: T1, chimeric human H3 receptor (Homo sapiens, UniProt Q9Y5N1, E19D); test: Chimeric human H3 receptor GTP binding assay (agonist-stimulated GTP-gamma35S binding, Example 7); assay type: biochemical; details: "*" in Ki of Table II; assay of Example 7; read-out: Ki
T1 construct: made in house; host or cells: Sf9 insect cells (baculovirus infection); P2 membrane preparation
T1 sequence (Q9Y5N1 with tags, fused parts or gaps E19D): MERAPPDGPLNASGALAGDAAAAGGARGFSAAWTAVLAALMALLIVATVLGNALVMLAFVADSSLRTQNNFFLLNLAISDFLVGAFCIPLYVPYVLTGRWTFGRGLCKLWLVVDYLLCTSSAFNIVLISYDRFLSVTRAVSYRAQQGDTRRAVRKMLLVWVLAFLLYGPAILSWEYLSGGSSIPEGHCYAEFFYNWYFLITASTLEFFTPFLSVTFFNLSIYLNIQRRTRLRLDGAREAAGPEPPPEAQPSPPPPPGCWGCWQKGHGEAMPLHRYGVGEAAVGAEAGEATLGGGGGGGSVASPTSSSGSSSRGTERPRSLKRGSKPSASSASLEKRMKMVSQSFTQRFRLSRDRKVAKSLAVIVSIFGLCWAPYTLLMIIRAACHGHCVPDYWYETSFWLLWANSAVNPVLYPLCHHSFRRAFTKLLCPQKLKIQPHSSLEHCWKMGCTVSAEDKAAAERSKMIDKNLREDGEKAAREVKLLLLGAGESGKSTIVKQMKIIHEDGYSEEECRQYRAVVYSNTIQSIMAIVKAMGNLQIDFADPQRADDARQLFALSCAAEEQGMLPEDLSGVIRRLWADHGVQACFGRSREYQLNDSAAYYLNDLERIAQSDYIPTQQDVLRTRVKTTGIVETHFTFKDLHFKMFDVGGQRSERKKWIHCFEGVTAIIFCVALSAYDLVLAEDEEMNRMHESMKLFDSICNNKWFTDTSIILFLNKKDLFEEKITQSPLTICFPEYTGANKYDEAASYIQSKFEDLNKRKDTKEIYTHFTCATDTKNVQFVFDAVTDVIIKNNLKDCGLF
Outline: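 Sf9 membranes co-expressing the chimeric receptor and heterotrimeric G-protein subunits, 35 μg protein per tube, in pH 7.4 Tris buffer with 10 μM GDP. Test compounds at 10^−10 to 10^−6 M with 1 μM histamine, 60 min at room temperature. Filter-bound GTP-gamma^35S read by scintillation; IC50 from non-linear regression of dose-response curves.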

Ki, < 1 µM:
CC(C)N1CCN(C(=O)CN2CCN(c3ccc(C(F)(F)F)cn3)CC2C)CC1 (stereo not drawn) [Compound 445, 1-[2-(4-isopropylpiperazin-1-yl)-2-oxoethyl]-2-methyl-4-[5-(trifluoromethyl)pyridin-2-yl]piperazine]

same assay, conditions: assay of Example 7; symbol * in column headed Ki of Table II; read-out: Ki

Ki, < 1 µM:
CC(=O)c1ccc(N2CCN(CC(=O)N3CCN(C4CCC4)CC3)CC2)nc1 [Compound 371, 1-(6-{4-[2-(4-cyclobutylpiperazin-1-yl)-2-oxoethyl]piperazin-1-yl}pyridin-3-yl)ethanone]
CC(=O)c1ccc(N2CCN(CC(=O)N3CCN(C4CCC4)CC3)CC2)nn1 [Compound 372, 1-(6-{4-[2-(4-cyclobutylpiperazin-1-yl)-2-oxoethyl]piperazin-1-yl}pyridazin-3-yl)ethanone]
CC(=O)c1ccc(N2CCN(CC(=O)N3CCN(C4CCCC4)CC3)CC2)nc1 [Compound 373, 1-(6-{4-[2-(4-cyclopentylpiperazin-1-yl)-2-oxoethyl]piperazin-1-yl}pyridin-3-yl)ethanone]
COc1cc(Br)c(CC(=O)N2CCN(CC(=O)N3CCN(C4CCC4)CC3)CC2)cc1OC [Compound 378, 1-[(2-bromo-4,5-dimethoxyphenyl)acetyl]-4-[2-(4-cyclobutylpiperazin-1-yl)-2-oxoethyl]piperazine]
O=C(Cc1cc(Cl)ccc1Br)N1CCN(CC(=O)N2CCN(C3CCC3)CC2)CC1 [Compound 379, 1-[(2-bromo-5-chlorophenyl)acetyl]-4-[2-(4-cyclobutylpiperazin-1-yl)-2-oxoethyl]piperazine]
O=C(Cc1ccccc1Br)N1CCN(CC(=O)N2CCN(C3CCC3)CC2)CC1 [Compound 380, 1-[(2-bromophenyl)acetyl]-4-[2-(4-cyclobutylpiperazin-1-yl)-2-oxoethyl]piperazine]
O=C(Cc1c(F)cccc1Cl)N1CCN(CC(=O)N2CCN(C3CCC3)CC2)CC1 [Compound 382, 1-[(2-chloro-6-fluorophenyl)acetyl]-4-[2-(4-cyclobutylpiperazin-1-yl)-2-oxoethyl]piperazine]
COc1ccc(Br)cc1CC(=O)N1CCN(CC(=O)N2CCN(C3CCC3)CC2)CC1 [Compound 409, 1-[(5-bromo-2-methoxyphenyl)acetyl]-4-[2-(4-cyclobutylpiperazin-1-yl)-2-oxoethyl]piperazine]
O=C(CN1CCN(c2ccc(C(=O)N3CCCCCC3)cn2)CC1)N1CCN(C2CCC2)CC1 [Compound 415, 1-[(6-{4-[2-(4-cyclobutylpiperazin-1-yl)-2-oxoethyl]piperazin-1-yl}pyridin-3-yl)carbonyl]azepane]
CC(Oc1ccccc1Cl)C(=O)N1CCN(CC(=O)N2CCN(C3CCC3)CC2)CC1 (stereo not drawn) [Compound 417, 1-[2-(2-chlorophenoxy)propanoyl]-4-[2-(4-cyclobutylpiperazin-1-yl)-2-oxoethyl]piperazine]
CC(Oc1cccc(Cl)c1)C(=O)N1CCN(CC(=O)N2CCN(C3CCC3)CC2)CC1 (stereo not drawn) [Compound 418, 1-[2-(3-chlorophenoxy)propanoyl]-4-[2-(4-cyclobutylpiperazin-1-yl)-2-oxoethyl]piperazine]
O=C(CN1CCC(N2CCCCC2)CC1)N1CCN(C2CCC2)CC1 [Compound 421, 1′-[2-(4-cyclobutylpiperazin-1-yl)-2-oxoethyl]-1,4′-bipiperidine]
CC(C)N1C(=O)C2(CCN(CC(=O)N3CCN(C4CCC4)CC3)CC2)c2ccccc21 [Compound 422, 1′-[2-(4-cyclobutylpiperazin-1-yl)-2-oxoethyl]-1-isopropylspiro[indole-3,4′-piperidin]-2(1H)-one]
CN1C(=O)C2(CCN(CC(=O)N3CCN(C4CCC4)CC3)CC2)c2ccccc21 [Compound 423]
O=C(CN1CCC2(CC1)C(=O)N(c1ccccn1)c1ccccc12)N1CCN(C2CCC2)CC1 [Compound 424, 1′-[2-(4-cyclobutylpiperazin-1-yl)-2-oxoethyl]-1-pyridin-2-ylspiro[indole-3,4′-piperidin]-2(1H)-one]
COc1ccc(CN2C(=O)c3ccccc3C23CCN(CC(=O)N2CCN(C4CCC4)CC2)CC3)c(OC)c1 [Compound 425, 1′-[2-(4-cyclobutylpiperazin-1-yl)-2-oxoethyl]-2-(2,4-dimethoxybenzyl)spiro[isoindole-1,4′-piperidin]-3(2H)-one]
CC(C)N1C(=O)c2ccccc2C12CCN(CC(=O)N1CCN(C3CCC3)CC1)CC2 [Compound 426, 1-[2-(4-cyclobutylpiperazin-1-yl)-2-oxoethyl]-2-isopropylspiro[isoindole-1,4′-piperidin]-3(2H)-one]
CC1CN(c2ccc(C(F)(F)F)cn2)CCN1CC(=O)N1CCN(C2CCC2)CC1 (stereo not drawn) [Compound 427, 1-[2-(4-cyclobutylpiperazin-1-yl)-2-oxoethyl]-2-methyl-4-[5-(trifluoromethyl)pyridin-2-yl]piperazine]
CC1CCN(C2CCN(CC(=O)N3CCN(C4CCC4)CC3)CC2)CC1 [Compound 428, 1′-[2-(4-cyclobutylpiperazin-1-yl)-2-oxoethyl]-4-methyl-1,4′-bipiperidine]
COc1ccc(CN2Cc3cccnc3C23CCN(CC(=O)N2CCN(C4CCC4)CC2)CC3)c(OC)c1 [Compound 429, 1-[2-(4-cyclobutylpiperazin-1-yl)-2-oxoethyl]-6′-(2,4-dimethoxybenzyl)-5′,6′-dihydrospiro[piperidine-4,7′-pyrrolo[3,4-b]pyridine]]
COc1cccc(CN2C(=O)c3cccnc3C23CCN(CC(=O)N2CCN(C4CCC4)CC2)CC3)c1 [Compound 430, 1-[2-(4-cyclobutylpiperazin-1-yl)-2-oxoethyl]-6′-(3-methoxybenzyl) spiro[piperidine-4,7-pyrrolo[3,4-b]pyridin]-5′(6′H)-one]
CCCN(CC1CC1)C1CCN(CC(=O)N2CCN(C3CCC3)CC2)CC1 [Compound 431, 1-[2-(4-cyclobutylpiperazin-1-yl)-2-oxoethyl]-N-(cyclopropylmethyl)-N-propylpiperidin-4-amine]
CCCN(CCC)C1CCN(CC(=O)N2CCN(C3CCC3)CC2)CC1 [Compound 432, 1-[2-(4-cyclobutylpiperazin-1-yl)-2-oxoethyl]-N,N-dipropylpiperidin-4-amine]
O=C(CN1CCC2(CC1)C(=O)Nc1ccccc12)N1CCN(C2CCC2)CC1 [Compound 433, 1′-[2-(4-cyclobutylpiperazin-1-yl)-2-oxoethyl]spiro[indole-3,4′-piperidin]-2(1H)-one]
O=C1NC2(CCN(CC(=O)N3CCN(C4CCC4)CC3)CC2)c2ccccc21 [Compound 434, 1′-[2-(4-cyclobutylpiperazin-1-yl)-2-oxoethyl]spiro[isoindole-1,4′-piperidin]-3(2H)-one]
O=C(CN1CCC2(CC1)C(=O)Nc1cccnc12)N1CCN(C2CCC2)CC1 [Compound 435, 1-[2-(4-cyclobutylpiperazin-1-yl)-2-oxoethyl]spiro[piperidine-4,3′-pyrrolo[3,2-b]pyridin]-2′(1′H)-one]
O=C1NC2(CCN(CC(=O)N3CCN(C4CCC4)CC3)CC2)c2ncccc21 [Compound 436, 1-[2-(4-cyclobutylpiperazin-1-yl)-2-oxoethyl]spiro[piperidine-4,7′-pyrrolo[3,4-b]pyridin]-5′(6′H)-one]
O=C(CN1CCC(N2CCCCC2)CC1)N1CCN(C2CCCCC2)CC1 [Compound 437, 1′-[2-(4-cyclohexylpiperazin-1-yl)-2-oxoethyl]-1,4′-bipiperidine]
CC1CN(c2ccc(C(F)(F)F)cn2)CCN1CC(=O)N1CCN(C2CCCCC2)CC1 (stereo not drawn) [Compound 438, 1-[2-(4-cyclohexylpiperazin-1-yl)-2-oxoethyl]-2-methyl-4-[5-(trifluoromethyl)pyridin-2-yl]piperazine]
CC1CCN(C2CCN(CC(=O)N3CCN(C4CCCCC4)CC3)CC2)CC1 [Compound 439, 1′-[2-(4-cyclohexylpiperazin-1-yl)-2-oxoethyl]-4-methyl-1,4′-bipiperidine]
CCCN(CC1CC1)C1CCN(CC(=O)N2CCN(C3CCCCC3)CC2)CC1 [Compound 440, 1-[2-(4-cyclohexylpiperazin-1-yl)-2-oxoethyl]-N-(cyclopropylmethyl)-N-propylpiperidin-4-amine]
CCCN(CCC)C1CCN(CC(=O)N2CCN(C3CCCCC3)CC2)CC1 [Compound 441, 1-[2-(4-cyclohexylpiperazin-1-yl)-2-oxoethyl]-N,N-dipropylpiperidin-4-amine]
CC1CN(c2ccc(C(F)(F)F)cn2)CCN1CC(=O)N1CCN(C2CCCC2)CC1 (stereo not drawn) [Compound 442, 1-[2-(4-cyclopentylpiperazin-1-yl)-2-oxoethyl]-2-methyl-4-[5-(trifluoromethyl)pyridin-2-yl]piperazine]
CCN(CC)C1CCN(CC(=O)N2CCN(C3CCCC3)CC2)C1 (stereo not drawn) [Compound 443, 1-[2-(4-cyclopentylpiperazin-1-yl)-2-oxoethyl]-N,N-diethylpyrrolidin-3-amine]
CN(C)C1CCN(CC(=O)N2CCN(C3CCCC3)CC2)C1 (stereo not drawn) [Compound 444, 1-[2-(4-cyclopentylpiperazin-1-yl)-2-oxoethyl]-N,N-dimethylpyrrolidin-3-amine]
